Consider one compound from publication PMC4878759 (PLoS ONE, 2016).

This assay concerns the target T1, ENaC (Homo sapiens, UniProt P37088+P51168+P51170).
T1 construct: endogenous in cells; host or cells: T84 cells, ENaC induced with 2 mM sodium butyrate for 2 days
T1 sequence (P37088 1-669): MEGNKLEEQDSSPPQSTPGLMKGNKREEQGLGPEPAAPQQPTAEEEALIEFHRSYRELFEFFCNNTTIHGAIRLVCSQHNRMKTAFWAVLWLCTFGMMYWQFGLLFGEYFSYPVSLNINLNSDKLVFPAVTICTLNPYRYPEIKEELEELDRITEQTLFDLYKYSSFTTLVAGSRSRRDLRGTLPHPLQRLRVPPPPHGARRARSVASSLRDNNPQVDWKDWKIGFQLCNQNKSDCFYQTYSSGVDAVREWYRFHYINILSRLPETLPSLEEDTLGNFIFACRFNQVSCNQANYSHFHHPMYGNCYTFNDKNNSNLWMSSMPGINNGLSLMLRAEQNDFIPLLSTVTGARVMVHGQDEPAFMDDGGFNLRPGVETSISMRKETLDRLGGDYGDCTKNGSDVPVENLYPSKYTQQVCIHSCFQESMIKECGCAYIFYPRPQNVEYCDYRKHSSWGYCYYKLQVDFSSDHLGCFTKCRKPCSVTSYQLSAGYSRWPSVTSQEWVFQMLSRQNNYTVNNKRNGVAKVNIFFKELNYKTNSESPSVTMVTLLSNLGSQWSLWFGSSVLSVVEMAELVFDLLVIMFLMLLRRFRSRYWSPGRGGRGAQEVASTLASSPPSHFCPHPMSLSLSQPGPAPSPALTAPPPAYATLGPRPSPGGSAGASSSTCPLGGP
T1 sequence (P51168 1-640): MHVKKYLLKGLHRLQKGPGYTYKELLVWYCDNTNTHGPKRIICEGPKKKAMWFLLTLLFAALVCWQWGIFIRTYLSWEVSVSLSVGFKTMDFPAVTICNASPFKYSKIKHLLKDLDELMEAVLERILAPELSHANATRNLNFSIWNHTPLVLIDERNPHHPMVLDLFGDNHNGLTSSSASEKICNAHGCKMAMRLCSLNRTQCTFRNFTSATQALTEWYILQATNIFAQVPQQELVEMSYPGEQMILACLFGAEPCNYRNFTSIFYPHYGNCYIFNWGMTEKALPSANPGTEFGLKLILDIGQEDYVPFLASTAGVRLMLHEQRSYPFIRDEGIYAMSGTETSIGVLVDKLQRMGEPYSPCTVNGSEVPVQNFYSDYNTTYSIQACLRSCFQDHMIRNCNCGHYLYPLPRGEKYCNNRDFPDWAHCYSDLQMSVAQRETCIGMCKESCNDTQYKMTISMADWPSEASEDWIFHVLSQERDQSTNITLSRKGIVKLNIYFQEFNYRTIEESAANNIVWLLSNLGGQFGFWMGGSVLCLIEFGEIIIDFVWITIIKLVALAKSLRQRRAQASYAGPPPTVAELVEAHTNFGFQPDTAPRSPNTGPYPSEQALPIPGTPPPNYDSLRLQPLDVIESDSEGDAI
T1 sequence (P51170 1-649): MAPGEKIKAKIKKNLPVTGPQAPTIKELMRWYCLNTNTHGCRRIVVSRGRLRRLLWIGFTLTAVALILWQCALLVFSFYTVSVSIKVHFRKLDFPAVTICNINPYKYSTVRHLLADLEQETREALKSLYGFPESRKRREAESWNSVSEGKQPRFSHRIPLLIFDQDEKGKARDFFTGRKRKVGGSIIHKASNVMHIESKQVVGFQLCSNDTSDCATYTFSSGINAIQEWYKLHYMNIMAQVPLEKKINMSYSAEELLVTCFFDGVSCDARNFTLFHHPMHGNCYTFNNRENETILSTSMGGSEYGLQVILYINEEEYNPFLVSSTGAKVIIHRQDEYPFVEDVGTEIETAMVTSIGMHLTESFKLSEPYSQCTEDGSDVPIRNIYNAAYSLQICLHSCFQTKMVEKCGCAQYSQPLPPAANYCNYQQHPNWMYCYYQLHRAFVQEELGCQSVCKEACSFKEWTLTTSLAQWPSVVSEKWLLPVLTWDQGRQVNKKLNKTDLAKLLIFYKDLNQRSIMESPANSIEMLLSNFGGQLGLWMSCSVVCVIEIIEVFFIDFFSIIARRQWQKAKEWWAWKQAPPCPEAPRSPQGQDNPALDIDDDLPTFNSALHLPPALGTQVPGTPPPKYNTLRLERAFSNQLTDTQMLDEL
As to the kind of experiment: Short circuit current in T84 cells expressing ENaC. The note with it: up to 30 μM. The assay is classed as cell-based. As to the method: Snapwell inserts containing ANO1, ANO2 or CFTR expressing FRT cells, ENaC expressing T-84 cells or the human primary airway epithelial cells were mounted in Ussing chambers (Physiologic Instruments, San Diego, CA). To induce transcriptional ENaC induction, the polarized T84 cells were incubated with 2 mM sodium butyrate for 2 days. To increase the functional expression of ANO1, the human airway epithelial cells were treated with IL-4 (10 ng/mL) for 2 days. For T-84 and the human primary airway epithelial cells, the apical and basolateral bath were filled with HCO3^—buffered solution containing (in mM): 120 NaCl, 5 KCl, 1 MgCl2, 1 CaCl2, 10 D-glucose, 2.5 HEPES, and 25 NaHCO3 (pH 7.4). For FRT cells, the basolateral bath was filled with the HCO3^—buffered solution and the apical bath was filled with a half-Cl^- solution. In the half-Cl^- solution 65 mM NaCl in the HCO3^—buffered solution was replaced by Na-gluconate. […] ATP was applied to the apical bath solution to induce intracellular calcium increase. […] Apical membrane currents were measured with an EVC4000 Multi-Channel V/I Clamp (World Precision Instruments, Sarasota, FL) and PowerLab 4/35 (AD Instruments, Castle Hill, Australia). Data were analyzed using Labchart Pro 7 (AD Instruments). The sampling rate was 4 Hz.
ANO1 was activated by either 10 μM Eact, an ANO1 activator, or 100 μM ATP.

For the compound `COc1ccccc1C=NNC(=O)COc1ccc(Cl)cc1C` [Ani9, 2-(4-chloro-2-methylphenoxy)-N-[(2-methoxyphenyl)methylideneamino]-acetamide], the “effect on ENaC channel activity” value is “no effect”.
